{
  "source": "patent US20240228504A1",
  "about": "“SUBSTITUTED TRICYCLIC AMIDES, ANALOGUES THEREOF, AND METHODS USING SAME” (Arbutus Biopharma Corporation, priority 2020, published 2024)",
  "data": [
    {"test_system": "HBV rcDNA in HepDE19 cells", "assay": "HepDE19 assay with bDNA quantitation of HBV rcDNA", "type": "cell-based, hepatitis B virus", "details": "HepDE19 assay, inhibition of rcDNA formation, bDNA quantitation; read-out: DE-19bDNA EC50", "units": {"EC50": "µM"}, "values": [
      {"smiles": "CN(C(=O)c1cc2cc(F)c(C(F)F)cc2[nH]1)C1CNCc2[nH]c(=O)c3cc(F)c(F)cc3c21", "note": "(single isomer, unassigned) [Compound 221, N-(8,9-Difluoro-6-oxo-1,2,3,4,5,6-hexahydrobenzo[c][1,7]naphthyridin-1-yl)-6-(difluoromethyl)-5-fluoro-N-methyl-1H-indole-2-carboxamide]", "EC50": 0.03},
      {"smiles": "CN(C(=O)c1cc2ccc(F)cn2c1)C1CNCc2[nH]c(=O)c3cc(F)c(F)cc3c21", "note": "(single isomer, unassigned) [Compound 222, N-(8,9-Difluoro-6-oxo-1,2,3,4,5,6-hexahydrobenzo[c][1,7]naphthyridin-1-yl)-6-fluoro-N-methylindolizine-2-carboxamide]", "EC50": 7.07},
      {"smiles": "CN(C(=O)c1cc2ccc(F)cn2c1)C1CNCc2[nH]c(=O)c3cc(F)c(F)cc3c21", "note": "(single isomer, unassigned) [Compound 223, N-(8,9-Difluoro-6-oxo-1,2,3,4,5,6-hexahydrobenzo[c][1,7]naphthyridin-1-yl)-6-fluoro-N-methylindolizine-2-carboxamide]", "EC50": 0.03},
      {"smiles": "CN(C(=O)c1cc2c(C(F)F)cc(F)cc2[nH]1)C1COCc2[nH]c(=O)c3cc(F)ccc3c21", "note": "(single isomer, unassigned) [Compound 238, 4-(Difluoromethyl)-6-fluoro-N-(8-fluoro-6-oxo-1,4,5,6-tetrahydro-2H-pyrano[3,4-c]isoquinolin-1-yl)-N-methyl-1H-indole-2-carboxamide]", "EC50": 1.4},
      {"smiles": "CN(C(=O)c1cc2c(C(F)F)cc(F)cc2[nH]1)C1COCc2[nH]c(=O)c3cc(F)ccc3c21", "note": "(single isomer, unassigned) [Compound 239, 4-(Difluoromethyl)-6-fluoro-N-(8-fluoro-6-oxo-1,4,5,6-tetrahydro-2H-pyrano[3,4-c]isoquinolin-1-yl)-N-methyl-1H-indole-2-carboxamide]", "EC50": 0.01},
      {"smiles": "CN(C(=O)c1cc2c(C(F)F)c(F)ccc2[nH]1)C1COCc2[nH]c(=O)c3cc(F)ccc3c21", "note": "(single isomer, unassigned) [Compound 255, 4-(Difluoromethyl)-5-fluoro-N-(8-fluoro-6-oxo-1,4,5,6-tetrahydro-2H-pyrano[3,4-c]isoquinolin-1-yl)-N-methyl-1H-indole-2-carboxamide]", "EC50": 0.68},
      {"smiles": "CN(C(=O)c1cc2c(C(F)F)c(F)ccc2[nH]1)C1COCc2[nH]c(=O)c3cc(F)ccc3c21", "note": "(single isomer, unassigned) [Compound 256, 4-(Difluoromethyl)-5-fluoro-N-(8-fluoro-6-oxo-1,4,5,6-tetrahydro-2H-pyrano[3,4-c]isoquinolin-1-yl)-N-methyl-1H-indole-2-carboxamide]", "EC50": 0.01},
      {"smiles": "CN(C(=O)c1cc2c(C(F)F)cc(F)cc2[nH]1)C1CNCc2[nH]c(=O)c3cc(F)c(F)cc3c21", "note": "(single isomer, unassigned) [Compound 257, N-(8,9-Difluoro-6-oxo-1,2,3,4,5,6-hexahydrobenzo[c][1,7]naphthyridin-1-yl)-4-(difluoromethyl)-6-fluoro-N-methyl-1H-indole-2-carboxamide]", "EC50": 2.2},
      {"smiles": "CN(C(=O)c1cc2c(C(F)F)cc(F)cc2[nH]1)C1CNCc2[nH]c(=O)c3cc(F)c(F)cc3c21", "note": "(single isomer, unassigned) [Compound 258, N-(8,9-Difluoro-6-oxo-1,2,3,4,5,6-hexahydrobenzo[c][1,7]naphthyridin-1-yl)-4-(difluoromethyl)-6-fluoro-N-methyl-1H-indole-2-carboxamide]", "EC50": 0.02},
      {"smiles": "CN(C(=O)c1cc2c(C(F)F)cc(F)cc2[nH]1)C1CNCc2[nH]c(=O)c3cc(F)ccc3c21", "note": "(single isomer, unassigned) [Compound 259, 4-(Difluoromethyl)-6-fluoro-N-(8-fluoro-6-oxo-1,2,3,4,5,6-hexahydrobenzo[c][1,7]naphthyridin-1-yl)-N-methyl-1H-indole-2-carboxamide]", "EC50": 5.1},
      {"smiles": "CN(C(=O)c1cc2c(C(F)F)cc(F)cc2[nH]1)C1CNCc2[nH]c(=O)c3cc(F)ccc3c21", "note": "(single isomer, unassigned) [Compound 260, 4-(Difluoromethyl)-6-fluoro-N-(8-fluoro-6-oxo-1,2,3,4,5,6-hexahydrobenzo[c][1,7]naphthyridin-1-yl)-N-methyl-1H-indole-2-carboxamide]", "EC50": 0.06},
      {"smiles": "CN(C(=O)c1cc2c(C(F)F)c(F)ccc2[nH]1)C1CNCc2[nH]c(=O)c3cc(F)c(F)cc3c21", "note": "(single isomer, unassigned) [Compound 264, N-(8,9-Difluoro-6-oxo-1,2,3,4,5,6-hexahydrobenzo[c][1,7]naphthyridin-1-yl)-4-(difluoromethyl)-5-fluoro-N-methyl-1H-indole-2-carboxamide]", "EC50": 8.23},
      {"smiles": "CN(C(=O)c1cc2c(C(F)F)c(F)ccc2[nH]1)C1CNCc2[nH]c(=O)c3cc(F)c(F)cc3c21", "note": "(single isomer, unassigned) [Compound 265, N-(8,9-Difluoro-6-oxo-1,2,3,4,5,6-hexahydrobenzo[c][1,7]naphthyridin-1-yl)-4-(difluoromethyl)-5-fluoro-N-methyl-1H-indole-2-carboxamide]", "EC50": 0.02},
      {"smiles": "CN(C(=O)c1cc2c(C(F)F)c(F)ccc2[nH]1)C1CNCc2[nH]c(=O)c3cc(F)ccc3c21", "note": "(single isomer, unassigned) [Compound 271, 4-(Difluoromethyl)-5-fluoro-N-(8-fluoro-6-oxo-1,2,3,4,5,6-hexahydrobenzo[c][1,7]naphthyridin-1-yl)-N-methyl-1H-indole-2-carboxamide]", "EC50": 6.7},
      {"smiles": "CN(C(=O)c1cc2c(C(F)F)c(F)ccc2[nH]1)C1CNCc2[nH]c(=O)c3cc(F)ccc3c21", "note": "(single isomer, unassigned) [Compound 272, 4-(Difluoromethyl)-5-fluoro-N-(8-fluoro-6-oxo-1,2,3,4,5,6-hexahydrobenzo[c][1,7]naphthyridin-1-yl)-N-methyl-1H-indole-2-carboxamide]", "EC50": 0.07},
      {"smiles": "CN(C(=O)c1ccc(-c2cccc(F)c2)cc1)C1CNCc2[nH]c(=O)c3cc(F)c(F)cc3c21", "note": "(single isomer, unassigned) [Compound 301, N-(8,9-Difluoro-6-oxo-1,2,3,4,5,6-hexahydrobenzo[c][1,7]naphthyridin-1-yl)-3′-fluoro-N-methyl-[1,1′-biphenyl]-4-carboxamide]", "EC50": 24.5},
      {"smiles": "CN(C(=O)c1ccc(-c2cccc(F)c2)cc1)C1CNCc2[nH]c(=O)c3cc(F)c(F)cc3c21", "note": "(single isomer, unassigned) [Compound 302, N-(8,9-Difluoro-6-oxo-1,2,3,4,5,6-hexahydrobenzo[c][1,7]naphthyridin-1-yl)-3′-fluoro-N-methyl-[1,1′-biphenyl]-4-carboxamide]", "EC50": 1.06},
      {"smiles": "CNc1nc2c(c3cc(F)c(F)cc13)C(N(C)C(=O)c1cc3cc(F)c(F)cc3[nH]1)COC2", "note": "(single isomer, unassigned) [Compound 333, N-(8,9-Difluoro-6-(methylamino)-1,4-dihydro-2H-pyrano[3,4-c]isoquinolin-1-yl)-5,6-difluoro-N-methyl-1H-indole-2-carboxamide]", "EC50": 0.53},
      {"smiles": "CNc1nc2c(c3cc(F)c(F)cc13)C(N(C)C(=O)c1cc3cc(F)c(F)cc3[nH]1)COC2", "note": "(single isomer, unassigned) [Compound 334, N-(8,9-Difluoro-6-(methylamino)-1,4-dihydro-2H-pyrano[3,4-c]isoquinolin-1-yl)-5,6-difluoro-N-methyl-1H-indole-2-carboxamide]", "EC50": 0.01},
      {"smiles": "CN(C(=O)c1cc2cc(F)c(F)cc2[nH]1)C1COCc2nc(NCCO)c3cc(F)c(F)cc3c21", "note": "(single isomer, unassigned) [Compound 335, N-(8,9-Difluoro-6-((2-hydroxyethyl)amino)-1,4-dihydro-2H-pyrano[3,4-c]isoquinolin-1-yl)-5,6-difluoro-N-methyl-1H-indole-2-carboxamide]", "EC50": 0.44},
      {"smiles": "CN(C(=O)c1cc2cc(F)c(F)cc2[nH]1)C1COCc2nc(NCCO)c3cc(F)c(F)cc3c21", "note": "(single isomer, unassigned) [Compound 336, N-(8,9-Difluoro-6-((2-hydroxyethyl)amino)-1,4-dihydro-2H-pyrano[3,4-c]isoquinolin-1-yl)-5,6-difluoro-N-methyl-1H-indole-2-carboxamide]", "EC50": 0.01},
      {"smiles": "CN(C(=O)c1cc2cc(F)c(F)cc2[nH]1)C1COCc2nc(NCCN)c3cc(F)c(F)cc3c21", "note": "(single isomer, unassigned) [Compound 351, N-(6-((2-Aminoethyl)amino)-8,9-difluoro-1,4-dihydro-2H-pyrano[3,4-c]isoquinolin-1-yl)-5,6-difluoro-N-methyl-1H-indole-2-carboxamide]", "EC50": 0.03},
      {"smiles": "CN(C(=O)c1cc2cc(F)c(F)cc2[nH]1)C1COCc2nc(NCCN)c3cc(F)c(F)cc3c21", "note": "(single isomer, unassigned) [Compound 352, N-(6-((2-Aminoethyl)amino)-8,9-difluoro-1,4-dihydro-2H-pyrano[3,4-c]isoquinolin-1-yl)-5,6-difluoro-N-methyl-1H-indole-2-carboxamide]", "EC50": 0.59},
      {"smiles": "CC(O)c1cc(F)cc2[nH]c(C(=O)N(C)[C@@H]3COCc4[nH]c(=O)c5cc(F)c(F)cc5c43)cc12", "note": "(single isomer, unassigned) [Compound 353]", "EC50": 0.06}
    ]},
    {"test_system": "HBV rcDNA in HepDE19 cells", "assay": "HepDE19 assay with bDNA quantitation of HBV rcDNA", "type": "cell-based, hepatitis B virus", "details": "Hepatitis B virus, HepDE19, HepDE19 assay, inhibition of rcDNA formation, bDNA quantitation; read-out: DE-19bDNA EC50", "units": {"EC50": "µM"}, "values": [
      {"smiles": "CN(C(=O)c1cccc(-c2cccc(F)c2)c1)C1CNCc2[nH]c(=O)c3cc(F)c(F)cc3c21", "note": "(single isomer, unassigned) [Compound 304, N-(8,9-Difluoro-6-oxo-1,2,3,4,5,6-hexahydrobenzo[c][1,7]naphthyridin-1-yl)-3′-fluoro-N-methyl-[1,1′-biphenyl]-3-carboxamide]", "EC50": 20},
      {"smiles": "CNS(=O)(=O)c1cccc(C(=O)N(C)C2CNCc3[nH]c(=O)c4cc(F)c(F)cc4c32)c1", "note": "(single isomer, unassigned) [Compound 319, N-(8,9-Difluoro-6-oxo-1,2,3,4,5,6-hexahydrobenzo[c][1,7]naphthyridin-1-yl)-N-methyl-3-(N-methylsulfamoyl)benzamide]", "EC50": 6.8},
      {"smiles": "CN(C(=O)c1cccc(Oc2cccc(F)c2)c1)C1CNCc2[nH]c(=O)c3cc(F)c(F)cc3c21", "note": "(single isomer, unassigned) [Compound 339, N-(8,9-Difluoro-6-oxo-1,2,3,4,5,6-hexahydrobenzo[c][1,7]naphthyridin-1-yl)-3-(3-fluorophenoxy)-N-methylbenzamide]", "EC50": 25}
    ]}
  ]
}
